# Patent US6825230B2, “Spiro and dispiro 1,2,4-trixolane antimalarials” (Medicines for Malaria Venture MMV, priority 2002, dated 2004)
# Where two headings read alike, the source gives them in different places.
# Experiments:
# [1] = test system: ANKA strain of P. berghei; assay: Single dose STI in vivo screen in infected mice; design: species or system Plasmodium berghei; conditions: for Survival (days) 10 mg/kg po: single 10 mg/kg po in 3% ethanol and 7% Tween 80; for Survival (days) 10 mg/kg po / Survival (days) 10 mg/kg SSV po / Survival (days) 10 mg/kg sc: untreated 6-7 days; for Activity (%) 10 mg/kg po: single 10 mg/kg po in 3% ethanol and 7% Tween 80 on day 1 post-infection; for Activity (%) 10 mg/kg po / Activity (%) 10 mg/kg SSV po / Activity (%) 10 mg/kg sc / Activity (%) 3 mg/kg SSV po: percent reduction in parasitemia on day 3; for Survival (days) 10 mg/kg SSV po: single 10 mg/kg po in SSV; for Activity (%) 10 mg/kg SSV po: single 10 mg/kg po in standard suspending vehicle (SSV) on day 1 post-infection; for Survival (days) 10 mg/kg sc: single 10 mg/kg sc in 3% ethanol and 7% Tween 80; for Activity (%) 10 mg/kg sc: single 10 mg/kg sc in 3% ethanol and 7% Tween 80 on day 1 post-infection; for Survival (days) 3 mg/kg SSV po / Activity (%) 3 mg/kg SSV po: single 3 mg/kg po in SSV
# [2] = test system: chloroquine-sensitive NF54 strain of P. falciparum; assay: In vitro antimalarial semiautomated microdilution assay ([3H]-hypoxanthine incorporation), NF54 strain; type: cell-based, Plasmodium falciparum; conditions: Plasmodium falciparum
# Method in brief: (§1)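 IC50 values come from Logit regression of [3H]-hypoxanthine uptake data. Parasites were intraerythrocytic P. falciparum forms taken from asynchronous stock cultures and tested by semiautomated microdilution.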
# [3] = test system: chloroquine-resistant K1 strain of P. falciparum; assay: In vitro antimalarial semiautomated microdilution assay ([3H]-hypoxanthine incorporation), K1 strain; type: cell-based, Plasmodium falciparum; conditions: Plasmodium falciparum
# Method in brief: as §1
# [4] = NF54, 72 h, read-out: IC50 (ng/ml) NF54, chloroquine-sensitive NF54 strain, 72 h incubation
# [5] = K1, 72 h, read-out: IC50 (ng/ml) K1, chloroquine-resistant K1 strain, 72 h incubation
# [6] = chloroquine-sensitive NF54 strain, 72 h incubation, read-out: IC50 (ng/ml) NF54
# [7] = chloroquine-resistant K1 strain, 72 h incubation, read-out: IC50 (ng/ml) K1
Structure (SMILES),Survival (days) 10 mg/kg po [1] [days],Activity (%) 10 mg/kg po [1],Survival (days) 10 mg/kg SSV po [1] [days],Activity (%) 10 mg/kg SSV po [1],Survival (days) 10 mg/kg sc [1] [days],Activity (%) 10 mg/kg sc [1],"IC50 [2, 4] [ng/mL]","IC50 [3, 5] [ng/mL]","IC50 [2, 6] [ng/mL]","IC50 [3, 7] [ng/mL]",Survival (days) 3 mg/kg SSV po [1] [days],Activity (%) 3 mg/kg SSV po [1] [%]
O=C1CNC(=O)N1C[C@H]1CC[C@]2(CC1)OOC1(O2)C2CC3CC(C2)CC1C3 (some centres unmarked) [OZ206],8.0,93%,8.7,92%,9.7,91%,2.7,1,,,,
CC(C)(CO)NC(=O)[C@H]1CC[C@]2(CC1)OOC1(O2)C2CC3CC(C2)CC1C3 (some centres unmarked) [OZ129],5.3,0%,5.7,4%,5.7,0%,> 10,10,,,,
NC(=O)NC[C@H]1CC[C@]2(CC1)OOC1(O2)C2CC3CC(C2)CC1C3 (some centres unmarked) [OZ265],13.0,99%,9.7,98%,11.7,99.67%,,,1.6,0.56,,
CC(=O)NC[C@H]1CC[C@]2(CC1)OOC1(O2)C2CC3CC(C2)CC1C3 (some centres unmarked) [OZ262],11.7,96%,12.3,98%,10.0,99.39%,,,0.84,0.63,,
"COC(=O)c1ccc(C2(c3ccccc3)OOC3(O2)C2CC4CC(C2)CC3C4)cc1 (centres unmarked) [OZ138, Adamantane-2-spiro-3′-5′-[4′-(methoxycarbonyl)phenyl]-5′-phenyl-1′,2′,4′-trioxolane]",5.7,0%,6.3,5%,6.3,7%,19,10,,,,
COC(=O)c1ccc(C[C@H]2CC[C@]3(CC2)OOC2(O3)C3CC4CC(C3)CC2C4)cc1 (some centres unmarked) [OZ204],6.0,0/0/0%,6.3,0/0/0%,6.0,0/0/0%,> 10,> 10,,,,
CN1CCN(C(=O)NC[C@H]2CC[C@]3(CC2)OOC2(O3)C3CC4CC(C3)CC2C4)CC1 (some centres unmarked) [OZ267],8.3,99.92%,8.7,99.89%,9.3,99.97%,,,0.34,0.2,,
"CCOC(=O)N1C2CCC1CC1(C2)OOC2(O1)C1CC3CC(C1)CC2C3 (centres unmarked) [OZ110, Adamantane-2-spiro-3′-1′,2′,4′-trioxolane-5′-spiro-3″-8″-ethoxycarbonyl-8″-azabicyclo[3.2.1]octane]",6.7,50%,5.3,0%,7.7,97.97%,2.1,5.3,,,,
"O=[N+]([O-])c1cc(C2(c3ccc(Cl)c([N+](=O)[O-])c3)OOC3(O2)C2CC4CC(C2)CC3C4)ccc1Cl (centres unmarked) [OZ96, Adamantane-2-spiro-3′-5′,5′-bis(4′-chloro-3′-nitrophenyl)-1′,2′,4′-trioxolane]",5.7,12%,5.7,14%,5.3,19%,> 10,8.4,,,,
"C1C2CC3CC1CC(C2)C31OO[C@]2(CC[C@@H](CN(C[C@H]3CC[C@]4(CC3)OOC3(O4)C4CC5CC(C4)CC3C5)C3CC3)CC2)O1 (stereo partly drawn) [OZ254, N,N-Bis(cis-adamantane-2-spiro-3′-1′,2′,4′-trioxaspiro[4.5]decane-8′-methyl)cyclopropylamine]",6.0,27%,5.7,11%,5.7,2%,,,57,> 100,,
c1csc(NC[C@H]2CC[C@]3(CC2)OOC2(O3)C3CC4CC(C3)CC2C4)n1 (some centres unmarked) [OZ252],8.3,98.91%,9.0,99.49%,9.3,99.82%,,,2.2,2.3,,
O=C(O)c1ccc([C@H]2CC[C@]3(CC2)OOC2(O3)C3CC4CC(C3)CC2C4)cc1 (some centres unmarked) [OZ165],6.3,18%,6.0,3%,5.7,9%,> 10,39,,,,
Fc1ccc(OC2CCC3(CC2)OOC2(O3)C3CC4CC(C3)CC2C4)cc1 (centres unmarked) [OZ193],9.3,99.75%,8.0,93%,11.0,99.92%,8.3,5.5,,,,
O=C(O)CCC(=O)NC[C@H]1CC[C@]2(CC1)OO[C@]1(O2)C2CC3CC(C2)CC1C3 [OZ300],,,6.8,6%,,,,,97,71,7.0,0
C1CC1CNC1CCC2(CC1)OOC1(O2)C2CC3CC(C2)CC1C3 (centres unmarked) [OZ184],6.7,54%,7.0,59%,8.7,97%,1.4,1,,,,
"O=C(O)COCC(=O)N1CCC2(CC1)OOC1(O2)C2CC3CC(C2)CC1C3 (centres unmarked) [OZ112, Adamantane-2-spiro-3′-8′-[(carboxymethoxy)acetyl]-1′,2′,4′-trioxa-8′-azaspiro[4.5]decane]",5.7,6%,5.7,0%,6.3,36%,> 10,> 10,,,,
O=C(C[C@H]1CC[C@]2(CC1)OO[C@]1(O2)C2CC3CC(C2)CC1C3)NCc1ccccn1 [OZ295],,,7.0,47%,,,,,0.75,0.44,6.4,35
"CCOC(=O)C1(C(=O)OCC)COC2(CCC3(CC2)OOC2(O3)C3CC4CC(C3)CC2C4)OC1 (centres unmarked) [OZ120, Adamantane-2-spiro-3′-11′,11′-bis(ethoxycarbonyl)-1′,2′,4′,9′,13′-pentaoxadispiro[4.2.5.2]pentadecane]",6.0,33%,5.7,8%,8.0,96%,,,0.59,1.2,,
COCC(=O)N(Cc1ccccc1)C1CCC2(CC1)OOC1(O2)C2CC3CC(C2)CC1C3 (centres unmarked) [OZ173],7.0,15%,6.7,0%,9.7,80%,32,58,,,,
O=S(=O)(C[C@H]1CC[C@]2(CC1)OO[C@]1(O2)C2CC3CC(C2)CC1C3)c1ncccn1 [OZ299],,,6.6,36%,,,6.3,6.8,,,6.4,0
O=C1c2ccccc2C(=O)N1C[C@H]1CC[C@@]2(CC1)OOC1(O2)C2CC3CC(C2)CC1C3 (some centres unmarked) [OZ167],6.0,0%,6.0,6%,7.3,97%,> 10,6.7,,,,
NC[C@H]1CC[C@@]2(CC1)OOC1(O2)C2CC3CC(C2)CC1C3 (some centres unmarked) [OZ269],10.7,98%,11.3,86%,9.0,99.92%,,,0.61,0.32,,
